From patent US5117037A, “Cis-bicyclo[4,3.0]non-2-end derivatives” (Sagami Chemical Research Center Toa Eiyo Ltd., priority 1989, dated 1992)

What was measured:
[1] = tested on: platelet aggregation (collagen-induced); assay: Platelet anti-aggregatory activities, collagen-induced aggregation of washed platelet suspension; format: cell-based, Japanese white male rabbits; conditions: for IC50: Oryctolagus cuniculus, 0.05 h, rabbit platelet suspension, 3 min preincubation, read-out: Platelet anti-aggregatory activities ED50, collagen (concentration inhibiting 50% of the platelet aggregation)
Description: (§1) Japanese white male rabbits having a weight of from 2.0 to 2.5 kg were used.
(§2) Under anesthesia with pentobarbital sodium, blood was collected from the carotid artery and mixed with citric acid dextrose solution (1/7 volume) as an anticoagulant. Then, the mixture was subjected to centrifugal separation at 140 ×g for 15 minutes, whereupon the supernatant (platelet rich plasma: PRP) was collected. PRP was subjected to centrifugal separation at 1,300 ×g for 7 minutes, and platelet pellets thereby obtained were washed with a HEPES buffer solution (pH 6.5) for washing platelets and then subjected to centrifugal separation at 1,300 ×g for 7 minutes. The platelet pellets were washed twice under the same conditions and then suspended in a suspending solution (prepared by adding 0.1% […] for washing platelets) to make a platelet suspension containing from 5 to 8×10^8 platelets/ml. An aggregation meter was used for the measurement of the platelet aggregatory ability. To 380 μl of the platelet suspension, 10 μl of a test compound or a solvent as control was added. Three minutes later, 10 μl of a platelet aggregatory substance (as the final concentration: […], or […]) was added to induce platelet aggregation. The blood platelet anti-aggregatory activities by the test compound was represented by ED50 (i.e. the concentration of the test compound inhibiting 50% of the platelet aggregation).

[2] = tested on: platelet aggregation (ADP-induced); assay: Platelet anti-aggregatory activities, ADP-induced aggregation of washed platelet suspension; format: cell-based, Japanese white male rabbits; conditions: for IC50: Oryctolagus cuniculus, 0.05 h, rabbit platelet suspension, 3 min preincubation, read-out: Platelet anti-aggregatory activities ED50, ADP (concentration inhibiting 50% of the platelet aggregation); for activity ratio, ADP (PGI2 = 1): ratio of ED50 relative to PGI2
Description: as §1, §2

[3] = tested on: gastric lesion induced by ethanol; assay: Inhibitory effect on formation of gastric lesion induced by ethanol; format: in vivo, Male wistar rats; conditions: rat, p.o, 1.5 hours later; for ED50: po, 1 ml of 99.5% ethanol orally 30 minutes after test compound, read-out: Inhibitory effect on formation of gastric lesion induced by ethanol ED50 (dose at which the ulcer was inhibited by 50%); for activity ratio, gastric lesion (PGE2 = 1): ratio of ED50 relative to PGE2
Description: Male wistar rats having a weight of from 170 to 270 g were put into individual cages and starved for 24 hours. During this starvation period, the rats were allowed to drink water freely. A test compound or PGE2 as a comparative compound was orally administered at a dose of 3 μg/kg, 10 μg/kg or 30 μg/kg, and 30 minutes later, 1 ml of 99.5% ethanol was orally administered to each rat. One hour or 4.5 hours after the ethanol administration, each rat was sacrificed by cervical vertebral dislocation, and the stomach was taken out. Each stomach was inflated with an amount of about 8 ml of 1% formaline solution and put into 1% formaline solution for 30 minutes to fix the gastric wall. After the fixing, the stomach was severed along the greater curvature, and the mucous membrane surface of the stomach was gently washed with flowing water. Then, the total length of lesions appearing on the gastric glandular portion was determined and used as the ulcer index.
The inhibitory effect of the test compound was represent by ED50 (i.e. the dose of the test compound at which the ulcer was inhibited by 50% relative to the ulcer index of the non-treated group). To the non-treated group, the solvent was administered.

IC50 [1] [nM]	IC50 [2] [nM]	Compound	activity ratio, ADP (PGI2 = 1) [2]	activity ratio, collagen (PGI2 = 1) ([1]; ratio of ED50 relative to PGI2)	ED50 [3] [µg/kg]	activity ratio, gastric lesion (PGE2 = 1) [3]
3.4	2.9	CCCCC[C@H](O)/C=C/[C@@H]1[C@H]2C/C(=C/CCCC(=O)O)O[C@H]2C[C@H]1O [PGI2, reference compound]	–	–	–	–
8.6	2.7	CCC#CCC(C)(C)[C@H](O)C#C[C@@H]1[C@H]2CCC(CCOCC(=O)O)=C[C@H]2C[C@H]1O [g, 3-(3-oxa-4-carboxybutyl)-7-exo-(4,4-dimethyl-3α-hydroxy-1,6-nondiynyl)-8-endo-hydroxy-cisbicyclo[4.3.0]non-2-ene]	1.1	–	–	–
0.58	1.3	CCC#CCC(C)(C)[C@H](O)C#C[C@@H]1[C@H]2CCC(/C=C\CCC(=O)O)=C[C@H]2C[C@H]1O [c]	2.2	5.9	0.97	9.3
–	–	CCC#CC[C@@H](C)[C@H](O)C#C[C@@H]1[C@H]2CCC(CCOCC(=O)O)=C[C@H]2C[C@H]1O [f]	–	–	2.1	4.3
